The assay has as its system black nightshade (Solanam nigram). Nature of the assay: Field trial, post-emergence foliar application, weed control rating 0-100%. Conditions: SOLNI, 56 days after first application, with 0.5 L/ha ACTIROB. The class given is in vivo. The source says: The (a) aminopyralid or an agriculturally acceptable salt or ester thereof is mixed with or applied in combination with (b) clopyralid or an agriculturally acceptable salt or ester thereof in an amount sufficient to induce a synergistic herbicidal effect. […] As described in the Herbicide Handbook of the Weed Science Society of America, Ninth Edition, 2007, p. 429, “‘synergism’ [is] an interaction of two or more factors such that the effect when combined is greater than the predicted effect based on the response to each factor applied separately.” Synergistic in the herbicide context can mean that the use of (a) and (b) as defined above results in an increased weed control effect compared to the weed control effects that are possible with the use of (a) or (b) alone. In some embodiments, the damage or injury to the undesired vegetation caused by the compositions and methods disclosed herein is evaluated using a scale from 0% to 100%, when compared with the untreated control vegetation, wherein 0% indicates no damage to the undesired vegetation and 100% indicates complete destruction of the undesired vegetation. […] 22 (1967) […]
Colby's equation was used to determine the herbicidal effects expected from the mixtures, as described above. The results were measured at 56 days after the first application of the compositions. […]

Molecules are shown by their SMILES. Structures can show the parent of a compound that is named as a salt.

With `O=C(O)c1nc(Cl)ccc1Cl` [Clopyralid-olamine, 3,6-dichloro-2-pyridinecarboxylic acid], the “Mean % weed control” value (90 g ae/ha applied alone) was 37.5%.
Turning to `Nc1cc(Cl)nc(C(=O)O)c1Cl` [Aminopyralid Potassium Salt, 4-amino-3,6-dichloro-2-pyridinecarboxylic acid], the “Mean % weed control” value (1 g ae/ha applied alone) stood at 0%.

(Values after patent publication US9629364B2, “Synergistic weed control from applications of aminopyralid and clopyralid” (Dow AgroSciences LLC, priority 2012, dated 2017).)
